doi:10.1101/2020.07.01.182642v1 (biorxiv, 2020)
Values belong to the molecule of their own block, whether it stands above or below them.

How the values were obtained:
Conditions in all cases: binder
SLK = SLK (Homo sapiens, UniProt Q9H2G2)
FES = FES (Homo sapiens, UniProt P07332)
VRK2 = VRK2 (Homo sapiens, UniProt Q86Y07)
CAMK1G = CAMK1G (Homo sapiens, UniProt Q96NX5)
STK38L = STK38L (Homo sapiens, UniProt Q9Y2H1)
STK16 = STK16 (Homo sapiens, UniProt O75716)
CDK16 = CDK16 (Homo sapiens, UniProt Q00536)
Sequence of CDK16 (Q00536 whole entry): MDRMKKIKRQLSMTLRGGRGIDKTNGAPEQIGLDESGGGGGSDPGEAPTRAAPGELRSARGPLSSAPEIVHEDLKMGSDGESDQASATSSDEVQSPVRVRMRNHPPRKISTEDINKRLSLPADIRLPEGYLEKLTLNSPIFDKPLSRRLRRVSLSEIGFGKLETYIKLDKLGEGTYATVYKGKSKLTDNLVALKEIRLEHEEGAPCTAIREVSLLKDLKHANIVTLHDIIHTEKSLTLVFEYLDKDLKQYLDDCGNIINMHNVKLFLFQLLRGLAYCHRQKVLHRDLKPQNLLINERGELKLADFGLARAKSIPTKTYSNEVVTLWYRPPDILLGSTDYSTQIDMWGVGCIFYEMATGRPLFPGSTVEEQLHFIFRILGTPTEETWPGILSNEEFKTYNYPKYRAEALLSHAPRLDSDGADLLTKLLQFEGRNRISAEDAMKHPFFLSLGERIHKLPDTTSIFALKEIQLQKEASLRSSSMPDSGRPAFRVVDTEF

SRPK3 = SRPK3 (Homo sapiens, UniProt Q9UPE1)
Sequence of SRPK3 (Q9UPE1 whole entry): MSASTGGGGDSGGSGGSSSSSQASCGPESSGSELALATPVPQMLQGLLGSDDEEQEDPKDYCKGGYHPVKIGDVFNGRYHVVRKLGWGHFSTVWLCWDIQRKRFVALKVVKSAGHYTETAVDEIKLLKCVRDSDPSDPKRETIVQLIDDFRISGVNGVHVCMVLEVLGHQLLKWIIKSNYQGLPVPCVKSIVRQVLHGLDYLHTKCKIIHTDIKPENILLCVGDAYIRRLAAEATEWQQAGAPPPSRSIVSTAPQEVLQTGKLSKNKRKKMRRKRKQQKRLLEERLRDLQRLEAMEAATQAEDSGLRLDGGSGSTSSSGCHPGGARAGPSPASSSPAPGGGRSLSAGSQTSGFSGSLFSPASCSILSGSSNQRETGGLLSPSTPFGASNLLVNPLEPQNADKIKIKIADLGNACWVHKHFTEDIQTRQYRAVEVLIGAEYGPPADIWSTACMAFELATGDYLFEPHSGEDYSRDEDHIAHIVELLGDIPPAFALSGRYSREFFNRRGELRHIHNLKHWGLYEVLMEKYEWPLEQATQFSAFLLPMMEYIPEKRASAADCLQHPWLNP

CSNK2A1 = CSNK2A1 (Homo sapiens, UniProt P68400)
Sequence of CSNK2A1 (P68400 whole entry): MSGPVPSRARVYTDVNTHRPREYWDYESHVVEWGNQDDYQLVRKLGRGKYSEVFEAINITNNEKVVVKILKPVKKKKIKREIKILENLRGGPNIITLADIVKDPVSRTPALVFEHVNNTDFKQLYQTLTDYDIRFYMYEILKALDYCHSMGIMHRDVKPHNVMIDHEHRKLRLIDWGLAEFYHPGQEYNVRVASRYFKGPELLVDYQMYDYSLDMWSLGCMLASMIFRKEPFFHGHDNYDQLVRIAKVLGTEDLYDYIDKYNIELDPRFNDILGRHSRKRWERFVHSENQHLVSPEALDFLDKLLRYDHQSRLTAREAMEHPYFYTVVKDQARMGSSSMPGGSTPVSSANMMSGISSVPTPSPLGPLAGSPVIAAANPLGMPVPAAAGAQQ

STK39 = STK39 (Homo sapiens, UniProt Q9UEW8)
CLK2 = CLK2 (Homo sapiens, UniProt P49760)
Sequence of CLK2 (P49760 whole entry): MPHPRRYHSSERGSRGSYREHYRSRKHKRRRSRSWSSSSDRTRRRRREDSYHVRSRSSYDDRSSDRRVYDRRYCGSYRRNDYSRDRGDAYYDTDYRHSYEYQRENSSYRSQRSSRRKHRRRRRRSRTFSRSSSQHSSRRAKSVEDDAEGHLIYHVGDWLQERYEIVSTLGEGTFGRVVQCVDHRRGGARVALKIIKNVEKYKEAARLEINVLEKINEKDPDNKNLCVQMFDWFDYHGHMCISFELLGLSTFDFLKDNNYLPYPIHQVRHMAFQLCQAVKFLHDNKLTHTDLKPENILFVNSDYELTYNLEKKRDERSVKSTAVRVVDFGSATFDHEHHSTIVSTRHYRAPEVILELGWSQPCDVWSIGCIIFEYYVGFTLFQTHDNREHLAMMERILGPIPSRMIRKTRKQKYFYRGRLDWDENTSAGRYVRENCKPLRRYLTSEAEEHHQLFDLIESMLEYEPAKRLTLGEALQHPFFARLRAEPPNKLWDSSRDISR

TNIK = TNIK (Homo sapiens, UniProt Q9UKE5)
GAK = biological target: T1, GAK (Homo sapiens, UniProt O14976)
T1 sequence (O14976 1-1311): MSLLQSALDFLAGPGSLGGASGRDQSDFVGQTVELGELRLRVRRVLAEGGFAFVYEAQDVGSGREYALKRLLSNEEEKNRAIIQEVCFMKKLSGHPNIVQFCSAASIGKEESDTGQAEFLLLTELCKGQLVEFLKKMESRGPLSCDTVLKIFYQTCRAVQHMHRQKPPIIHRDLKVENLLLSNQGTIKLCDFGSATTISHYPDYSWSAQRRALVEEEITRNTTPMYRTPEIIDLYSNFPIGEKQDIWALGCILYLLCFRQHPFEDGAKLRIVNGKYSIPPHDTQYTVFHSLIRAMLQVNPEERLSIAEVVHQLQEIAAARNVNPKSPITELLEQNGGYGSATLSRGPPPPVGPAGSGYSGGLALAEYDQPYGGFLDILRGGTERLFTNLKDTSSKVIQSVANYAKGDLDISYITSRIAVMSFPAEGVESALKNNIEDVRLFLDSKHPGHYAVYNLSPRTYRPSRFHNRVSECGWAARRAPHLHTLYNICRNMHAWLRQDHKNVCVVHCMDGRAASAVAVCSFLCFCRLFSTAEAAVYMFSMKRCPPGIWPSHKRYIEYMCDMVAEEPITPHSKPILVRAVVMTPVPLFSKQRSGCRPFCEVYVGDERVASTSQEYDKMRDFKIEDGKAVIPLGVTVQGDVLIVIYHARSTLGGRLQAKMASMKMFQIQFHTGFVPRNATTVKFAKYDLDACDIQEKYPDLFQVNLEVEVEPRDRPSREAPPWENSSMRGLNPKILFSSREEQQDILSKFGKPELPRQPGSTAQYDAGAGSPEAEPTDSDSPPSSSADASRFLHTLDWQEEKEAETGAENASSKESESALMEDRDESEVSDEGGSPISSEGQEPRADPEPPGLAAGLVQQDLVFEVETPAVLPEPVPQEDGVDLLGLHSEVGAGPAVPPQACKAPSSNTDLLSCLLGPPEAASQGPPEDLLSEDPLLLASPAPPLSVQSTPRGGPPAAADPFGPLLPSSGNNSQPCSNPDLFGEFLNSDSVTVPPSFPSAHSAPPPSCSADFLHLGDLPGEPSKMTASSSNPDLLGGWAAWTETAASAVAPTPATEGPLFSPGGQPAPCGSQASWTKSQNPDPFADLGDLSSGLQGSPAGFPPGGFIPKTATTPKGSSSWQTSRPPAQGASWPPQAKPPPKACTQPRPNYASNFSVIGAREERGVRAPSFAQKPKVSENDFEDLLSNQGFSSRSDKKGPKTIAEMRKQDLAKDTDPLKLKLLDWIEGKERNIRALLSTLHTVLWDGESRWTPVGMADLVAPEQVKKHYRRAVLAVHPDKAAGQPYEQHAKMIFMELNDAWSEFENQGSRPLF

LYN = LYN (Homo sapiens, UniProt P07948)
STK33 = STK33 (Homo sapiens, UniProt Q9BYT3)

Sequence of CAMK1G (Q96NX5 whole entry): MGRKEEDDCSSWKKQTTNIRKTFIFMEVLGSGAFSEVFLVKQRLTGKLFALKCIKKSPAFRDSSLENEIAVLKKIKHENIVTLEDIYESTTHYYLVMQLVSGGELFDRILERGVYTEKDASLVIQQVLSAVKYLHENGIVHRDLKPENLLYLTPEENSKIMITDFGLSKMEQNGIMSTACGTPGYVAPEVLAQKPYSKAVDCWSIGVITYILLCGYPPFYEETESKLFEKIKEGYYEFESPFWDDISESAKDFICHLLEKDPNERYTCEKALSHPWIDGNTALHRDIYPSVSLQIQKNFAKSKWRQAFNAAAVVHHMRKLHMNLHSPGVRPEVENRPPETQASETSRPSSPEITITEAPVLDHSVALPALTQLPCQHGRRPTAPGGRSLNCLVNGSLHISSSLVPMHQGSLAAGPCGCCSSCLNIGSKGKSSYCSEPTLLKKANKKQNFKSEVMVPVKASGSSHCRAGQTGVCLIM
Sequence of SLK (Q9H2G2 whole entry): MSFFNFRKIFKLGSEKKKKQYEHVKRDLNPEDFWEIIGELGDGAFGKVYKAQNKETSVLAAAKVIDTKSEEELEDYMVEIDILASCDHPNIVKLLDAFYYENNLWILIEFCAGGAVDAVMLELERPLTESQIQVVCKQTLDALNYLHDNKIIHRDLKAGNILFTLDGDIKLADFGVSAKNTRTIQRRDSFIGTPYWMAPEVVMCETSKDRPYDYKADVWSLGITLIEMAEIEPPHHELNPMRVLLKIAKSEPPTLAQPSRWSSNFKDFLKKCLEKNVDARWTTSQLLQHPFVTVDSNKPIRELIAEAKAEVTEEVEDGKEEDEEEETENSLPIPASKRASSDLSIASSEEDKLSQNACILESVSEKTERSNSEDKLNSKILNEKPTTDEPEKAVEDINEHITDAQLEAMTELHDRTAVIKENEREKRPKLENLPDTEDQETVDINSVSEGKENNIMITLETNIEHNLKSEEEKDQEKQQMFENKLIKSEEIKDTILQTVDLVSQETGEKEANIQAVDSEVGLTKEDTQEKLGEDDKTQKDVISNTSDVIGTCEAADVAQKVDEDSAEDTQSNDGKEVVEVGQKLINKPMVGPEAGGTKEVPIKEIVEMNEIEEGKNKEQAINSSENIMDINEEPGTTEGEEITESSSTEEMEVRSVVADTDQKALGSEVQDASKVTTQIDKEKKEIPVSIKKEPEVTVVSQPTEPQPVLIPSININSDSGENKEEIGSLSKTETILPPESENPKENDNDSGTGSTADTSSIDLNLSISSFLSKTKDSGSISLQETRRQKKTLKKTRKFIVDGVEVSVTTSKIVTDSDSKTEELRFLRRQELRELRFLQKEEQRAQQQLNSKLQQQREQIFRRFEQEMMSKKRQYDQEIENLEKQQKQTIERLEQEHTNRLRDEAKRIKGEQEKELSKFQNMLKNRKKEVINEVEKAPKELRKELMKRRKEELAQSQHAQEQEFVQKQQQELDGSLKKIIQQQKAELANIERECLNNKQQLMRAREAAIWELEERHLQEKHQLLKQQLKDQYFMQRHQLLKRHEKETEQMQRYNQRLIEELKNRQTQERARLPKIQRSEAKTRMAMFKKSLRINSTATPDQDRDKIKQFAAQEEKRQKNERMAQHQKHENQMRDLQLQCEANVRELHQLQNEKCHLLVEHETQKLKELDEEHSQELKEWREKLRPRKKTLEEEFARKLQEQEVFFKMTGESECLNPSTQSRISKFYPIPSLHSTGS
Sequence of VRK2 (Q86Y07 whole entry): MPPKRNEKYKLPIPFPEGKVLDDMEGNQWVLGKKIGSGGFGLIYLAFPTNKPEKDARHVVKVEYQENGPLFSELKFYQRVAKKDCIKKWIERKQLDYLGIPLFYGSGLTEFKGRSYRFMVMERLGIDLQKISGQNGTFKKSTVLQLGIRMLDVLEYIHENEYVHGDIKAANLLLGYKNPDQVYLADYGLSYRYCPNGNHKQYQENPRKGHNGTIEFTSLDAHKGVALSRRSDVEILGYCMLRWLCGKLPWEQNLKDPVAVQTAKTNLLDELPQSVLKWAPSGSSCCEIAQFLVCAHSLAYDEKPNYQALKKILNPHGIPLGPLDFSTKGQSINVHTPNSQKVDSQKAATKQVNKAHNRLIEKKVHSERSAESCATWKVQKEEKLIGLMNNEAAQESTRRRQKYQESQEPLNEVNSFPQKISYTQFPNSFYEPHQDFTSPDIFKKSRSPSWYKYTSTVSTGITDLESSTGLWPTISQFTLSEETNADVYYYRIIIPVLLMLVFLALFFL
Sequence of STK38L (Q9Y2H1 whole entry): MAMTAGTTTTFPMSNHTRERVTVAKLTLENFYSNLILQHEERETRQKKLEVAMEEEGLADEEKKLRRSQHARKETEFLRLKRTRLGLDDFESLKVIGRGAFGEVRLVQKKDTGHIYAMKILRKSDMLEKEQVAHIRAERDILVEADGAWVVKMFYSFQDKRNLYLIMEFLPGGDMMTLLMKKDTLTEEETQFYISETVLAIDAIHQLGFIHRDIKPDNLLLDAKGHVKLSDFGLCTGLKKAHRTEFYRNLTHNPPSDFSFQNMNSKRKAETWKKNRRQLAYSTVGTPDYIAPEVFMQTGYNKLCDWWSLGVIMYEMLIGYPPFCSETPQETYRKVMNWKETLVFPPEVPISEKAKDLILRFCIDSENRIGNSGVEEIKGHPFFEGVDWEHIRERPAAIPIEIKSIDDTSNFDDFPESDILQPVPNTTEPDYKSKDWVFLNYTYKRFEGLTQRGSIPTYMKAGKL
Sequence of STK16 (O75716 whole entry): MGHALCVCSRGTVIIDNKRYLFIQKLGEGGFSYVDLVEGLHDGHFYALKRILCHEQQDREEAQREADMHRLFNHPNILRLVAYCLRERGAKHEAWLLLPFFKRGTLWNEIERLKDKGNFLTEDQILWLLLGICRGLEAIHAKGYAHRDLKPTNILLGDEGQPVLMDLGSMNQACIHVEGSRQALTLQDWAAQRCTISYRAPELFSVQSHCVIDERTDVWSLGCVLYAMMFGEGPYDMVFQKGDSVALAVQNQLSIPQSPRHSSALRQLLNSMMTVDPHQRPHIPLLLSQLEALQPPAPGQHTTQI

ΔTm inhibitor 1 (SLK): 2.3 °C
ΔTm inhibitor 1 (FES): 0.6 °C
ΔTm inhibitor 1 (VRK2): 1.5 °C
ΔTm inhibitor 1 (CAMK1G): 0.6 °C
ΔTm inhibitor 1 (STK38L): 0.4 °C
ΔTm inhibitor 1 (STK16): 2.3 °C
ΔTm inhibitor 1 (CDK16): 0.5 °C
ΔTm inhibitor 1 (SRPK3): 0.4 °C
ΔTm inhibitor 1 (CSNK2A1): 3.3 °C
ΔTm inhibitor 1 (STK39): 0.8 °C
ΔTm inhibitor 1 (CLK2): 5.5 °C
ΔTm inhibitor 1 (TNIK): 1.2 °C
ΔTm inhibitor 1 (GAK): 7.3 °C
ΔTm inhibitor 1 (LYN): 2.4 °C
ΔTm 1 (STK33): 3.1 °C
SMILES: CC(=O)c1cccc(-c2cnc3ccc(NCC4CC4)nn23)c1 [compound 1, K00135]

ΔTm inhibitor 2 (SLK): -0.5 °C
ΔTm inhibitor 2 (FES): -0.1 °C
ΔTm inhibitor 2 (VRK2): 0.2 °C
ΔTm inhibitor 2 (CAMK1G): -0.1 °C
ΔTm inhibitor 2 (STK38L): 0.3 °C
ΔTm inhibitor 2 (STK16): 0.2 °C
ΔTm inhibitor 2 (CDK16): -0.4 °C
ΔTm inhibitor 2 (SRPK3): 0.0 °C
ΔTm inhibitor 2 (CSNK2A1): 2.6 °C
ΔTm inhibitor 2 (STK39): 0.5 °C
ΔTm inhibitor 2 (CLK2): 5.0 °C
ΔTm inhibitor 2 (TNIK): 0.1 °C
ΔTm inhibitor 2 (GAK): 0.2 °C
ΔTm inhibitor 2 (LYN): 0.1 °C
ΔTm 2 (STK33): 0.6 °C
SMILES: CCN1/C(=C/C(C)=O)Sc2ccc(OC)cc21 [compound 2, TG003]

ΔTm inhibitor 4 (SLK): 0.5 °C
ΔTm inhibitor 4 (FES): 0.3 °C
ΔTm inhibitor 4 (VRK2): 0.0 °C
ΔTm inhibitor 4 (CAMK1G): 0.3 °C
ΔTm inhibitor 4 (STK38L): 0.9 °C
ΔTm inhibitor 4 (STK16): 3.5 °C
ΔTm inhibitor 4 (CDK16): 1.2 °C
ΔTm inhibitor 4 (SRPK3): 0.2 °C
ΔTm inhibitor 4 (CSNK2A1): 0.2 °C
ΔTm inhibitor 4 (STK39): 0.0 °C
ΔTm inhibitor 4 (CLK2): 7.2 °C
ΔTm inhibitor 4 (TNIK): 1.2 °C
ΔTm inhibitor 4 (GAK): 3.3 °C
ΔTm inhibitor 4 (LYN): 0.3 °C
ΔTm 4 (STK33): 2.4 °C
SMILES: Nc1nccc(-c2ccc3noc(-c4ccc(Cl)cc4)c3c2)n1 [compound 4, K00972]
